Test results: US6737383B1, “Herbicidal oxadiazolidines” (priority 1999, dated 2004)

How the values were obtained:
crabgrass = experiment: Test B pre/postemergence crabgrass; type: in vivo, Digitaria sanguinalis
How it was run: (§1)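 Herbicidal effect was estimated by eye on a ten-point control scale after plants spent twelve to sixteen days in a greenhouse following soil or foliar treatment. Foliar sprays targeted plants at one to four leaves; all doses were formulated in a non-phytotoxic solvent with surfactant.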

cocklebur = experiment: Test B pre/postemergence cocklebur; type: in vivo, Xanthium strumarium
How it was run: as §1

velvetleaf = experiment: Test B pre/postemergence velvetleaf; type: in vivo, Abutilon theophrasti
How it was run: as §1

bamyardgrass = experiment: Test B flood test barnyardgrass; type: in vivo, Echinochloa crus-galli
How it was run: (§2)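 Each value is a visual injury score relative to controls, with 10 meaning complete control and 0 no effect. Evaluation took place twelve to sixteen days after the 2-leaf-stage plants were treated and kept in the greenhouse.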

soybean = experiment: Test B pre/postemergence soybean; type: in vivo, Glycine max
How it was run: as §1

blackgrass = experiment: Test B pre/postemergence blackgrass; type: in vivo, Alopecurus myosuroides
How it was run: as §1

smallflower flatsedge = experiment: Test B flood test smallflower flatsedge; type: in vivo, Cyperus difformis
How it was run: as §2

duck salad = experiment: Test B flood test duck salad; type: in vivo, Heteranthera limosa
How it was run: as §2

rice = experiment: Test B flood test rice; type: in vivo, Oryza sativa
How it was run: as §2

bedstraw = experiment: Test B pre/postemergence bedstraw; type: in vivo, Galium aparine
How it was run: as §1

surinam grass = experiment: Test B pre/postemergence surinam grass; type: in vivo, Brachiaria decumbens
How it was run: as §1

morningglory = experiment: Test B pre/postemergence morningglory; type: in vivo, Ipomoea hederacea
How it was run: as §1

wheat = experiment: Test B pre/postemergence wheat; type: in vivo, Triticum aestivum
How it was run: as §1

purple nutsedge = experiment: Test B pre/postemergence purple nutsedge; type: in vivo, Cyperus rotundus
How it was run: as §1

wild oat = experiment: Test B pre/postemergence wild oat; type: in vivo, Avena fatua
How it was run: as §1

giant foxtail = experiment: Test B pre/postemergence giant foxtail; type: in vivo, Setaria faberii
How it was run: as §1

corn = experiment: Test B pre/postemergence corn; type: in vivo, Zea mays
How it was run: as §1

[1] = Postemergence, Rate 62 g/ha, scale 0 to 10, 0 is no effect, 10 is complete control
[2] = Postemergence, Rate 250 g/ha, scale 0 to 10, 0 no effect, 10 complete control
[3] = Preemergence, Rate 62 g/ha, scale 0 to 10, 0 is no effect, 10 is complete control
[4] = Preemergence, Rate 125 g/ha, scale 0 to 10 (0 no effect, 10 complete control)
[5] = Preemergence, Rate 250 g/ha, scale of 0 to 10 where 0 is no effect and 10 is complete control
[6] = Preemergence, Rate 500 g/ha, scale 0 (no effect) to 10 (complete control)
[7] = Rate 125 g/ha, Postemergence, scale 0 to 10, 0 no effect, 10 complete control
[8] = Rate 500 g/ha, Postemergence, 0 to 10 scale (0 no effect, 10 complete control)
[9] = Rate 125 g/ha, Postemergence section (flood test species), scale 0 to 10, 0 no effect, 10 complete control
[10] = Rate 125 g/ha, Pre-emergence, flood test species, scale 0 to 10 where 0 is no effect and 10 is complete control
[11] = Rate 250 g/ha, headed Pre-emergence (flood test species), scale 0 to 10 (0 no effect, 10 complete control)
[12] = Rate 500 g/ha, Postemergence section of Table B, 0 to 10 scale (0 no effect, 10 complete control)
[13] = Rate 500 g/ha, headed Pre-emergence (flood test species), scale 0 to 10 (0 no effect, 10 complete control)
[14] = Rate 1000 g/ha, Pre-emergence (as headed), scale 0 to 10
[15] = flood test, listed under Postemergence, Rate 250 g/ha, scale 0 to 10, 0 no effect, 10 complete control

With COc1ccc(-n2c(=O)on(C(=O)N(c3ccc(F)cc3)C(C)C)c2=O)c(C)c1 [Compound 35] the “Crabgrass plant response rating” value (crabgrass; [1]) was 0, the “Crabgrass plant response rating” value (crabgrass; [2]) was 1 and the “Plant response rating, Crabgrass” value (crabgrass; [3]) was 3. The “Plant response rating, Crabgrass” value (crabgrass; [4]) was 3, the “Plant response rating, Crabgrass” value (crabgrass; [5]) was 6 and the “Crabgrass plant response rating” value (crabgrass; [6]) was 10. For the same compound, the “Crabgrass plant response rating” value (crabgrass; [7]) was 0, the “Crabgrass plant response rating” value (crabgrass; [8]) was 7 and the “Cocklebur plant response rating” value (cocklebur; [1]) was 0. For the same compound, the “Cocklebur plant response rating” value (cocklebur; [2]) was 4, the “Plant response rating, Cocklebur” value (cocklebur; [3]) was 0 and the “Plant response rating, Cocklebur” value (cocklebur; [4]) was 0. The “Plant response rating, Cocklebur” value (cocklebur; [5]) was 0, the “Cocklebur plant response rating” value (cocklebur; [6]) was 0 and the “Cocklebur plant response rating” value (cocklebur; [7]) was 2. For the same compound, the “Cocklebur plant response rating” value (cocklebur; [8]) was 5, the “Velvetleaf plant response rating” value (velvetleaf; [1]) was 0 and the “Velvetleaf plant response rating” value (velvetleaf; [2]) was 0. For the same compound, the “Plant response rating, Velvetleaf” value (velvetleaf; [3]) was 0, the “Plant response rating, Velvetleaf” value (velvetleaf; [4]) was 0 and the “Plant response rating, Velvetleaf” value (velvetleaf; [5]) was 0. The “Velvetleaf plant response rating” value (velvetleaf; [6]) was 0, the “Velvetleaf plant response rating” value (velvetleaf; [7]) was 0 and the “Barnyardgrass plant response rating” value (bamyardgrass; [1]) was 0. The “Barnyardgrass plant response rating” value (bamyardgrass; [9]) was 0, the “Barnyardgrass plant response rating” value (bamyardgrass; [10]) was 0 and the “Barnyardgrass plant response rating” value (bamyardgrass; [11]) was 0. The “Barnyardgrass plant response rating” value (bamyardgrass; [12]) was 0, the “Plant response rating, Barnyardgrass” value (bamyardgrass; [13]) was 0 and the “Barnyardgrass plant response rating” value (bamyardgrass; [14]) was 0. The “Barnyardgrass plant response rating” value (bamyardgrass; [15]) was 0, the “Soybean plant response rating” value (soybean; [1]) was 1 and the “Soybean plant response rating” value (soybean; [2]) was 1. For the same compound, the “Plant response rating, Soybean” value (soybean; [3]) was 0, the “Plant response rating, Soybean” value (soybean; [4]) was 0 and the “Plant response rating, Soybean” value (soybean; [5]) was 0. For the same compound, the “Soybean plant response rating” value (soybean; [6]) was 0, the “Soybean plant response rating” value (soybean; [7]) was 1 and the “Blackgrass plant response rating” value (blackgrass; [1]) was 0. For the same compound, the “Blackgrass plant response rating” value (blackgrass; [2]) was 1, the “Plant response rating, Blackgrass” value (blackgrass; [3]) was 0 and the “Plant response rating, Blackgrass” value (blackgrass; [4]) was 2. For the same compound, the “Plant response rating, Blackgrass” value (blackgrass; [5]) was 2, the “Blackgrass plant response rating” value (blackgrass; [6]) was 3 and the “Blackgrass plant response rating” value (blackgrass; [7]) was 0. The “Blackgrass plant response rating” value (blackgrass; [8]) was 7, the “S. Flatsedge plant response rating” value (smallflower flatsedge; [1]) was 0 and the “S. Flatsedge plant response rating” value (smallflower flatsedge; Pre-emergence, Rate 1000 g/ha, scale 0 to 10 (0 no effect, 10 complete control)) was 0. For the same compound, the “S. Flatsedge plant response rating” value (smallflower flatsedge; [9]) was 0, the “S. Flatsedge plant response rating” value (smallflower flatsedge; [10]) was 0 and the “S. Flatsedge plant response rating” value (smallflower flatsedge; [11]) was 0. The “Plant response rating, S. Flatsedge” value (smallflower flatsedge; [13]) was 0, the “S. Flatsedge plant response rating” value (smallflower flatsedge; [15]) was 0 and the “Ducksalad plant response rating” value (duck salad; [1]) was 0. The “Ducksalad plant response rating” value (duck salad; [9]) was 0, the “Ducksalad plant response rating” value (duck salad; [10]) was 0 and the “Ducksalad plant response rating” value (duck salad; [11]) was 0. For the same compound, the “Ducksalad plant response rating” value (duck salad; [12]) was 0, the “Plant response rating, Ducksalad” value (duck salad; [13]) was 0 and the “Ducksalad plant response rating” value (duck salad; [14]) was 0. The “Ducksalad plant response rating” value (duck salad; [15]) was 0, the “Rice plant response rating” value (rice; [1]) was 0 and the “Rice plant response rating” value (rice; [9]) was 0. For the same compound, the “Rice plant response rating” value (rice; [10]) was 0, the “Rice plant response rating” value (rice; [11]) was 0 and the “Rice plant response rating” value (rice; [12]) was 0. The “Plant response rating, Rice” value (rice; [13]) was 0, the “Rice plant response rating” value (rice; [14]) was 0 and the “Rice plant response rating” value (rice; [15]) was 0. The “Bedstraw plant response rating” value (bedstraw; [1]) was 0, the “Bedstraw plant response rating” value (bedstraw; [2]) was 3 and the “Plant response rating, Bedstraw” value (bedstraw; [3]) was 0. For the same compound, the “Plant response rating, Bedstraw” value (bedstraw; [4]) was 0, the “Plant response rating, Bedstraw” value (bedstraw; [5]) was 0 and the “Bedstraw plant response rating” value (bedstraw; [6]) was 0. The “Bedstraw plant response rating” value (bedstraw; [7]) was 2, the “Bedstraw plant response rating” value (bedstraw; [8]) was 6 and the “B. signalgrass plant response rating” value (surinam grass; [1]) was 0. The “B. signalgrass plant response rating” value (surinam grass; [2]) was 0, the “Plant response rating, B. signalgrass” value (surinam grass; [3]) was 0 and the “Plant response rating, B. signalgrass” value (surinam grass; [4]) was 0. The “Plant response rating, B. signalgrass” value (surinam grass; [5]) was 3, the “B. signalgrass plant response rating” value (surinam grass; [6]) was 7 and the “B. signalgrass plant response rating” value (surinam grass; [7]) was 0. The “B. signalgrass plant response rating” value (surinam grass; [8]) was 0, the “Morningglory plant response rating” value (morningglory; [1]) was 4 and the “Morningglory plant response rating” value (morningglory; [2]) was 8. The “Plant response rating, Morningglory” value (morningglory; [3]) was 0, the “Plant response rating, Morningglory” value (morningglory; [4]) was 0 and the “Plant response rating, Morningglory” value (morningglory; [5]) was 0. The “Morningglory plant response rating” value (morningglory; [6]) was 0, the “Morningglory plant response rating” value (morningglory; [7]) was 7 and the “Morningglory plant response rating” value (morningglory; [8]) was 8. The “Wheat plant response rating” value (wheat; [1]) was 0, the “Wheat plant response rating” value (wheat; [2]) was 0 and the “Plant response rating, Wheat” value (wheat; [3]) was 0. The “Plant response rating, Wheat” value (wheat; [4]) was 0, the “Plant response rating, Wheat” value (wheat; [5]) was 0 and the “Wheat plant response rating” value (wheat; [6]) was 0. The “Wheat plant response rating” value (wheat; [7]) was 0, the “Nutsedge plant response rating” value (purple nutsedge; [1]) was 0 and the “Nutsedge plant response rating” value (purple nutsedge; [2]) was 0. For the same compound, the “Plant response rating, Nutsedge” value (purple nutsedge; [3]) was 0, the “Plant response rating, Nutsedge” value (purple nutsedge; [4]) was 0 and the “Plant response rating, Nutsedge” value (purple nutsedge; [5]) was 0. The “Nutsedge plant response rating” value (purple nutsedge; [6]) was 0, the “Nutsedge plant response rating” value (purple nutsedge; [7]) was 0 and the “Nutsedge plant response rating” value (purple nutsedge; [8]) was 0. The “Wild oats plant response rating” value (wild oat; [1]) was 0, the “Wild oats plant response rating” value (wild oat; [2]) was 0 and the “Plant response rating, Wild oats” value (wild oat; [4]) was 0. For the same compound, the “Plant response rating, Wild oats” value (wild oat; [5]) was 2, the “Wild oats plant response rating” value (wild oat; [6]) was 6 and the “Wild oats plant response rating” value (wild oat; [7]) was 0. The “Giant foxtail plant response rating” value (giant foxtail; [1]) was 0, the “Giant foxtail plant response rating” value (giant foxtail; [2]) was 1 and the “Plant response rating, Giant foxtail” value (giant foxtail; [3]) was 3. For the same compound, the “Plant response rating, Giant foxtail” value (giant foxtail; [4]) was 7, the “Plant response rating, Giant foxtail” value (giant foxtail; [5]) was 10 and the “Giant foxtail plant response rating” value (giant foxtail; [6]) was 10. For the same compound, the “Giant foxtail plant response rating” value (giant foxtail; [7]) was 0, the “Giant foxtail plant response rating” value (giant foxtail; [8]) was 7 and the “Corn plant response rating” value (corn; [1]) was 0. The “Corn plant response rating” value (corn; [2]) was 0, the “Plant response rating, Corn” value (corn; [3]) was 0 and the “Plant response rating, Corn” value (corn; [4]) was 0. For the same compound, the “Plant response rating, Corn” value (corn; [5]) was 0, the “Corn plant response rating” value (corn; [6]) was 0 and the “Corn plant response rating” value (corn; [7]) was 0. For the same compound, the “Corn plant response rating” value (corn; [8]) was 0.
